# Where “and” joins values, the source holds several entries; their conditions need not be identical. Equal entries are not always repeated.
# Legend:
# AAK1 (AAK1A) = target: T1, AAK1 (AAK1A) (Homo sapiens, UniProt Q2M2I8); experiment: DSF Tm panel; type: binding; conditions: 10 μM compound
# T1 construct: purchased in-house DSF kinase panel (SGC-style construct names; the trailing letter is the construct ID)
# BRD4 (BRD4A) = target: T2, BRD4 (BRD4A) (Homo sapiens, UniProt O60885); experiment: DSF Tm panel; type: binding; conditions: 10 μM compound
# T2 construct: purchased in-house DSF kinase panel (SGC-style construct names; the trailing letter is the construct ID)
# GAKA = target: T3, GAKA (Homo sapiens, UniProt O14976); experiment: DSF Tm panel; type: binding; conditions: 10 μM compound
# T3 construct: purchased in-house DSF kinase panel (SGC-style construct names; the trailing letter is the construct ID)
# T3 sequence (O14976 14-351): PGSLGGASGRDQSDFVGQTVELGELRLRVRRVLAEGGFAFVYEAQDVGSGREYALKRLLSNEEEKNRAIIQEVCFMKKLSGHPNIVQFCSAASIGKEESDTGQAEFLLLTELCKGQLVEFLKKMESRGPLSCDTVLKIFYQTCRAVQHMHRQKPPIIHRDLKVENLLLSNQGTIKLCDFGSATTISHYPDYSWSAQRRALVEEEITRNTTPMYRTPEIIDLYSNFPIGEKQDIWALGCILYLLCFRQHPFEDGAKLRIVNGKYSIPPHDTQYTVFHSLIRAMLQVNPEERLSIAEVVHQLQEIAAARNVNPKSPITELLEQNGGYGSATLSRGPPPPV
# TAF1A = experiment: DSF Tm panel; type: binding; conditions: 10 μM compound
# ULK1A = target: T4, ULK1A (Homo sapiens, UniProt O75385); experiment: DSF Tm panel; type: binding; conditions: 10 μM compound
# T4 construct: purchased in-house DSF kinase panel (SGC-style construct names; the trailing letter is the construct ID)
# T4 sequence (O75385 1-283): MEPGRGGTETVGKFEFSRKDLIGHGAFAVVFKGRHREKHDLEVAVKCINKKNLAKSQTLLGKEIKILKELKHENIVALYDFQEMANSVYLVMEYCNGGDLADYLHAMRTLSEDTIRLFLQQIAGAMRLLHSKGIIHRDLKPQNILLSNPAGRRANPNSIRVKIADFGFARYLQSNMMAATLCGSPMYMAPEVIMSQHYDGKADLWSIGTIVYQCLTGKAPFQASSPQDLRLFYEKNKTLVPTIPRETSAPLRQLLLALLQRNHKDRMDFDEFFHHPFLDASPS
# CLK1A = target: T5, CLK1A (Homo sapiens, UniProt P49759); experiment: DSF Tm panel; type: binding; conditions: 10 μM compound
# T5 construct: purchased in-house DSF kinase panel (SGC-style construct names; the trailing letter is the construct ID)
# T5 sequence (P49759 148-484): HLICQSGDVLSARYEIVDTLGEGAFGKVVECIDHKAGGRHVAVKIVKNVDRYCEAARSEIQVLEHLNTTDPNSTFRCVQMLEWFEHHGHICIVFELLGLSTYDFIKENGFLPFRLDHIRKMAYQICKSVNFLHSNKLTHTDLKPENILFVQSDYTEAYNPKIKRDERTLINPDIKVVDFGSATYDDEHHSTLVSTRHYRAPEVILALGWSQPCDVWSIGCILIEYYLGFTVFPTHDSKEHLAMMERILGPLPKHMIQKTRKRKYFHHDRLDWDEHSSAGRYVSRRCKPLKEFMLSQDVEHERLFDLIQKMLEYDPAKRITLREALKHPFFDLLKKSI
# FESA = target: T6, FESA (Homo sapiens, UniProt P07332); experiment: DSF Tm panel; type: binding; conditions: 10 μM compound
# T6 construct: purchased in-house DSF kinase panel (SGC-style construct names; the trailing letter is the construct ID)
# T6 sequence (P07332 whole entry): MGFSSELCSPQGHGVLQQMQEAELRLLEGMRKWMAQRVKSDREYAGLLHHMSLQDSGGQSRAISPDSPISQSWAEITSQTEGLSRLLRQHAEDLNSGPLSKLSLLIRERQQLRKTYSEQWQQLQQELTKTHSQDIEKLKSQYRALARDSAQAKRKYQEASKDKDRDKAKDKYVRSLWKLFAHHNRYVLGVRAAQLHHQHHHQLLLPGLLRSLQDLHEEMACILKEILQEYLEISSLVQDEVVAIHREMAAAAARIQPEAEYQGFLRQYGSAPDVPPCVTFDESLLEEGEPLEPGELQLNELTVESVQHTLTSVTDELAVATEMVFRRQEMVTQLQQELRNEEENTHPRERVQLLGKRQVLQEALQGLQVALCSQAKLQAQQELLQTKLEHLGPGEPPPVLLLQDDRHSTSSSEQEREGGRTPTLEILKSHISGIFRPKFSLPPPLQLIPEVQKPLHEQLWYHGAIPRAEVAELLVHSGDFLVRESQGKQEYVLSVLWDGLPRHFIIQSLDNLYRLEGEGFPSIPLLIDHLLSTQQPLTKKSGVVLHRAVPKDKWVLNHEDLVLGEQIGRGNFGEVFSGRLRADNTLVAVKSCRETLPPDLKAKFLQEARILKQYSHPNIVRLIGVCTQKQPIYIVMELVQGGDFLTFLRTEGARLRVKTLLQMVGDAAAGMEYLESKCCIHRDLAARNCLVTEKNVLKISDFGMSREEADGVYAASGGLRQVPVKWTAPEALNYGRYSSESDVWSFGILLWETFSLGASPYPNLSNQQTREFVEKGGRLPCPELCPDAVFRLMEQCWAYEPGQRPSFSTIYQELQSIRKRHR
# CASKA = target: T7, CASKA (Homo sapiens, UniProt O14936); experiment: DSF Tm panel; type: binding; conditions: 10 μM compound
# T7 construct: purchased in-house DSF kinase panel (SGC-style construct names; the trailing letter is the construct ID)
# T7 sequence (O14936 12-276): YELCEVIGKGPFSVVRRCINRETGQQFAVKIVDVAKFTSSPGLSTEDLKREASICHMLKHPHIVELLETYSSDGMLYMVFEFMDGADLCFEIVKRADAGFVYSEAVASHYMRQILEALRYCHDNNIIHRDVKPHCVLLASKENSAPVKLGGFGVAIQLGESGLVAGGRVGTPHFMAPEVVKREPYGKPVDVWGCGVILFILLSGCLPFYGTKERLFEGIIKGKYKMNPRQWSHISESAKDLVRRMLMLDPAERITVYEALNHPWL
# PCTK1A = target: T8, PCTK1A (Homo sapiens, UniProt Q00536); experiment: DSF Tm panel; type: binding; conditions: 10 μM compound
# T8 construct: purchased in-house DSF kinase panel (SGC-style construct names; the trailing letter is the construct ID)
# T8 sequence (Q00536 163-478): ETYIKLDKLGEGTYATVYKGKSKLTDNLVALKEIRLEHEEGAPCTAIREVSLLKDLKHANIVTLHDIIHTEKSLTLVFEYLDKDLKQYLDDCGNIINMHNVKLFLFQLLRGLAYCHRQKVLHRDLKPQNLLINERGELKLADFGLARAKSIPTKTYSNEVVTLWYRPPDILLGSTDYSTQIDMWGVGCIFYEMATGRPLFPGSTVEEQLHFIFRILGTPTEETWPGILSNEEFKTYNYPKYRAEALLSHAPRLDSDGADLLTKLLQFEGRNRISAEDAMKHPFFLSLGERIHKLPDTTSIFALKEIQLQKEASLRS
# MAPK9A = target: T9, MAPK9A (Homo sapiens, UniProt P45984); experiment: DSF Tm panel; type: binding; conditions: 10 μM compound
# T9 construct: purchased in-house DSF kinase panel (SGC-style construct names; the trailing letter is the construct ID)
# T9 sequence (P45984 7-364): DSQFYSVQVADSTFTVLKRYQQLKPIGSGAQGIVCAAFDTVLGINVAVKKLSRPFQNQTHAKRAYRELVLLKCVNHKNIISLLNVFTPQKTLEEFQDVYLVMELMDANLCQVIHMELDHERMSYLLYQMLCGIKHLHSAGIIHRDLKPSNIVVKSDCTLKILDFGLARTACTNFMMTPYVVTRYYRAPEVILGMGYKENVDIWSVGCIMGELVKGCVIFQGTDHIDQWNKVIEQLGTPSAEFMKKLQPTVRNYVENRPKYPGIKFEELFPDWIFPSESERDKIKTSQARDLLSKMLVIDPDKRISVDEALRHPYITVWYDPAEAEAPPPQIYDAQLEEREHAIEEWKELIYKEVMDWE
# CSNK1DA = target: T10, CSNK1DA (Homo sapiens, UniProt P48730); experiment: DSF Tm panel; type: binding; conditions: 10 μM compound
# T10 construct: purchased in-house DSF kinase panel (SGC-style construct names; the trailing letter is the construct ID)
# T10 sequence (P48730 1-294): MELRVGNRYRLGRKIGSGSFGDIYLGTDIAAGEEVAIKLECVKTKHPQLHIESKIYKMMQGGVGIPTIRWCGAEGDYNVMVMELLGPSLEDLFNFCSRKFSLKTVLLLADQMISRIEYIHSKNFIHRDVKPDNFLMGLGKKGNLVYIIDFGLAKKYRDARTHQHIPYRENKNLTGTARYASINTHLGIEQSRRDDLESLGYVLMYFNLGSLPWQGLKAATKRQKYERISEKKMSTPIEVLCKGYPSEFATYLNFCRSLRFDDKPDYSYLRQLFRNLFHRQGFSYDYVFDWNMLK
# SRPK1A = target: T11, SRPK1A (Homo sapiens, UniProt Q96SB4); experiment: DSF Tm panel; type: binding; conditions: 10 μM compound
# T11 construct: purchased in-house DSF kinase panel (SGC-style construct names; the trailing letter is the construct ID)
# T11 sequence (Q96SB4 80-653): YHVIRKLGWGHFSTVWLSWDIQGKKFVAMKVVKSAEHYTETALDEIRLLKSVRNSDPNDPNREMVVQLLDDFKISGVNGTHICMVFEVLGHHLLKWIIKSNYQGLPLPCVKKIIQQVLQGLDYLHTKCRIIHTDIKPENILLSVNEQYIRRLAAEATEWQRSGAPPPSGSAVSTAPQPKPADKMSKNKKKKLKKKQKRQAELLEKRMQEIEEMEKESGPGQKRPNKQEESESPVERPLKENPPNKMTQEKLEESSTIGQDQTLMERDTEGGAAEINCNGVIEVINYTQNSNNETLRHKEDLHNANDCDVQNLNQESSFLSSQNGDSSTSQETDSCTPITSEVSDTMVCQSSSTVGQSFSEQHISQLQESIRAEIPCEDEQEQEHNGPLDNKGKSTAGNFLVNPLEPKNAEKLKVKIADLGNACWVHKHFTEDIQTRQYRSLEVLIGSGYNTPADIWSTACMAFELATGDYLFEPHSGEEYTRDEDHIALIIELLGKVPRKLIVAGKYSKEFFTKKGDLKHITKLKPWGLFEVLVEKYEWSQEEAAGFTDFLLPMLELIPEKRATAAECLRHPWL
# AKT3A = target: T12, AKT3A (Homo sapiens, UniProt Q9Y243); experiment: DSF Tm panel; type: binding; conditions: 10 μM compound
# T12 construct: purchased in-house DSF kinase panel (SGC-style construct names; the trailing letter is the construct ID)
# T12 sequence (Q9Y243 148-479): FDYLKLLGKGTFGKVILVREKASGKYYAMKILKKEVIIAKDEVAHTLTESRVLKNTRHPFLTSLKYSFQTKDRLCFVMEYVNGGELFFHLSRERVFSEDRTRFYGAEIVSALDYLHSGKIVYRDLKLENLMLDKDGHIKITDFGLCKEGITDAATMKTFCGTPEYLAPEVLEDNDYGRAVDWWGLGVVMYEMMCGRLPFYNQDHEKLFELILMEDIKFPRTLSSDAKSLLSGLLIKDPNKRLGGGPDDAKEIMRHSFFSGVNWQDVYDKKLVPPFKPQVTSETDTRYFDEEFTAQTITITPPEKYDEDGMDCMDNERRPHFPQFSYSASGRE
# MAPK14A = target: T13, MAPK14A (Homo sapiens, UniProt Q16539); experiment: DSF Tm panel; type: binding; conditions: 10 μM compound
# T13 construct: purchased in-house DSF kinase panel (SGC-style construct names; the trailing letter is the construct ID)
# T13 sequence (Q16539 whole entry): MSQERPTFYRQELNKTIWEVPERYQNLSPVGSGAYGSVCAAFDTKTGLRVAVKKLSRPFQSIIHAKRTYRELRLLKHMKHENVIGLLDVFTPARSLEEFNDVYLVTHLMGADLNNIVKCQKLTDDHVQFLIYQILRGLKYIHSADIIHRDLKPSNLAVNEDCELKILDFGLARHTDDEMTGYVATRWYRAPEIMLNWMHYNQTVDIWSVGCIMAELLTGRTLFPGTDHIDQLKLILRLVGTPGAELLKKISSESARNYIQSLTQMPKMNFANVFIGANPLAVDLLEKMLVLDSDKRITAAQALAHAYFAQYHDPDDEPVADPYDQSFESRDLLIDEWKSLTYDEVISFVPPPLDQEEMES
# STK10 = target: T14, STK10 (Homo sapiens, UniProt O94804); experiment: PhosphoSens in vitro activity assay; type: biochemical; conditions: ATP 160 μM
# T14 construct: purchased in-house DSF kinase panel (SGC-style construct names; the trailing letter is the construct ID)
# T14 sequence (O94804 18-317 limits assumed): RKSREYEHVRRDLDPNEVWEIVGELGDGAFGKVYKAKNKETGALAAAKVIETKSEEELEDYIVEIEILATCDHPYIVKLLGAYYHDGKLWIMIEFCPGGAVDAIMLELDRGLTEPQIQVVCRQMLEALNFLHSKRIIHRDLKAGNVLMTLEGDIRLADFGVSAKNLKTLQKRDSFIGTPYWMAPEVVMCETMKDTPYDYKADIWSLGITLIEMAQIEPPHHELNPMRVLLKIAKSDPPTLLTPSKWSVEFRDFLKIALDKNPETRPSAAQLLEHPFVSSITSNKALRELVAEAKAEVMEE
# SLK = SLK (Homo sapiens, UniProt Q9H2G2); experiment: PhosphoSens in vitro activity assay; type: biochemical; conditions: ATP 150 μM
# T1 sequence (Q2M2I8 27-365): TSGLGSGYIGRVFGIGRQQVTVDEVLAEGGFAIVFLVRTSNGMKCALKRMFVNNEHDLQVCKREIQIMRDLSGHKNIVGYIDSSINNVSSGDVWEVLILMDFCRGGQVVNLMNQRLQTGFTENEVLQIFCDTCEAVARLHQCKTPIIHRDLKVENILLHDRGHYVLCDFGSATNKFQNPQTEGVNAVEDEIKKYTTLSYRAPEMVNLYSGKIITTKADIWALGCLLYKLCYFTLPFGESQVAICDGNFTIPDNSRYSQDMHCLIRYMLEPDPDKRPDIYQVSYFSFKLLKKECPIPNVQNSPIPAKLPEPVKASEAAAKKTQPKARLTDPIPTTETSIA
ΔTm at 10 µM (AAK1 (AAK1A)) [°C],ΔTm at 10 µM (BRD4 (BRD4A)) [°C],ΔTm at 10 µM (GAKA) [°C],ΔTm at 10 µM (ULK1A) [°C],ΔTm at 10 µM (CLK1A) [°C],ΔTm at 10 µM (FESA) [°C],ΔTm at 10 µM (CASKA) [°C],ΔTm at 10 µM (PCTK1A) [°C],ΔTm at 10 µM (MAPK9A) [°C],ΔTm at 10 µM (CSNK1DA) [°C],ΔTm at 10 µM (SRPK1A) [°C],ΔTm at 10 µM (AKT3A) [°C],ΔTm at 10 µM (MAPK14A) [°C],IC50 (STK10),IC50 (SLK) [µM],Compound,ΔTm TAF1A (TAF1A)
6.3,1.8,2.4,0.6,2.1,0.5,1.7,1.1,1.5,0.4,0.6,0.4,0.8,1430 ± 280 nM,7.44 ± 1.64,O=C(NCc1ccc(Cl)cc1Cl)Nc1ccc2cc1OCCOCCNc1ccn3ncc-2c3n1 [compound 20],"0,6 °C"
5.5,1.5,4.1,0.3,2.9,0.1,2.1,1.3,0.5,0.4,-0.3,-0.4,0.3,2570 ± 110 nM,5.93 ± 0.76,O=C(NCc1cccc(Cl)c1)Nc1ccc2cc1OCCOCCNc1ccn3ncc-2c3n1 [compound 18],"0,5 °C"
4,1.4,5.9,0,1,0.5,0.6,0.7,-1.2,0.2,-0.2,0.3,2,4620 ± 880 nM,5.35 ± 1.36,Cc1cc(Br)ccc1CNC(=O)Nc1ccc2cc1OCCOCCNc1ccn3ncc-2c3n1 [compound 24],"0,1 °C"
6.5,2,2.8,0.3,2.6,0.5,2.5,2.8,2,1.2,0.2,0.9,0.3,850 nM and < 1000 nM,3.43 ± 1.12,Cc1cc(Cl)ccc1CNC(=O)Nc1ccc2cc1OCCOCCNc1ccn3ncc-2c3n1 [compound 23],"0,6 °C"
6.3,0.1,4.7,0.5,2.5,1.4,0.9,1.3,-1.9,0.2,0.1,0.2,0.9,6290 ± 1490 nM,> 20,COc1cccc(CNC(=O)Nc2ccc3cc2OCCOCCNc2ccn4ncc-3c4n2)c1 [compound 30],"-0,1 °C"

# From publication PMC12621043, “Un-LOK-ing a New Approach for Conformational Selective Targeting of STK10 (LOK)” (ACS Medicinal Chemistry Letters, 2025)
